From patent publication US20210393538A1, “SILICA-BASED DRUG NANOCAPSULES” (priority 2018, published 2021)
Counter-ions that a name gives are not always drawn.

Experiments:
[1] = tested on: RAW264.7 cells; experiment: Macrophage viability (MTT, Live/Dead Calcein AM/EthD-III); format: cell-based; settings: Mus musculus, RAW264.7 cells incubated 24 h
Procedure: In vitro cellular loading studies. RAW264.7 (murine macrophages) and U87MG (human glioblastoma) were purchased from ATCC. RAW264.7 cells were cultured in RPMI1640 medium (Corning, USA) supplemented with 10% FBS (Corning, USA) and 1% penicillin-streptomycin (MediaTech, USA). During the nanoparticle loading stage, FBS-free RPMI1640 medium was used for culturing. U87MG cells were grown in DMEM medium (Corning, USA) supplemented with 10% FBS, 1% non-essential amino acids, and 1% penicillin-streptomycin. These two cell lines were incubated under 37° C. and 5% CO2 in a humid chamber. […] To determine the amount of Dox loaded into cells, DSN-laden cells were counted and then lysed by sonication in PBS (pH 5.0). The amounts of released Dox was measured by spectroscopic analysis. The Dox content on a per cell basis was calculated compared with macrophages without nanoparticle loading. […] To evaluate the impact of loaded DSNs on macrophages, the viability change was first assessed at different time points post nanoparticle loading by 3-(4,5-dimethythiazon-2-yl)-2,5-diphenyl tetrazolium bromide (MTT) assay or Live/Dead Cytotoxicity assay and the results were compared with normal macrophages. […]

[2] = tested on: U87MG tumors; experiment: In vivo therapy study; parameters: species or system nude mice
Procedure: Small animal models. For imaging and therapy studies, a U87MG subcutaneous mouse model was used. The animal model was established by subcutaneously inoculating 1 million U87MG cells onto the right hind leg or the right flank (for PET imaging only) of a 5-6 week old athymic female nude mice (Harlan). For toxicity studies, normal 5-6 week old balb/c mice (Envigo laboratories). All the animal studied were performed according to a protocol approved by the Institutional Animal Care and Use Committee (IACUC) of University of Georgia.
In vivo therapy study. Treatments started when tumor size reached 100-150 mm^3. 25 mice were randomly divided into 5 groups and were i.v. injected with PBS, free Dox, DSN-52 in PBS, MF cells, and DSN-MF cells on Day 0. Dox, DSN-52, and DSN-MF were injected at 3 mg Dox kg^−1, and 4 million cells were injected into the mice in MF and DSN-MF groups. The body weight and tumor volume of each mouse were measured every other day for 2 weeks. The tumor volume was calculated by the following equation: tumor volume=0.5×length×(width)^2, where length≥width. Mice were euthanized once the tumor volume was above 1,700 mm^3.

[3] = Toxicity studies; format: in vivo, balb/c mice
Procedure: Small animal models. For imaging and therapy studies, a U87MG subcutaneous mouse model was used. […] For toxicity studies, normal 5-6 week old balb/c mice (Envigo laboratories). All the animal studied were performed according to a protocol approved by the Institutional Animal Care and Use Committee (IACUC) of University of Georgia. Toxicity studies. Fifteen normal balb/c mice were randomly divided into 5 groups and received regimens specified in the in vivo therapy study section. The body weight and anal temperature of each mouse were measured daily at the same time (starting from 6 days before injection through Day 6). On Day 7, all mice were euthanized and the whole blood was collected. Part of the blood samples were used for a complete blood count (CBC) test. […] All tests were conducted by following the vendors' protocols. CRP and TNF-α kits were purchased from RayBiotech, ALT (MAK055) and AST (MAK052) kits from Sigma-Aldrich, and BUN from Arbor Assays. Each assay was repeated at least twice.

COc1cccc2c1C(=O)c1c(O)c3c(c(O)c1C2=O)C[C@@](O)(C(=O)CO)C[C@@H]3O[C@H]1C[C@H](N)[C@H](O)[C@H](C)O1 [Dox, doxorubicin hydrochloride salt]
IC50 [1]: 1.5 µg/mL | tumor growth inhibition (TGI) rate ([2]; Day 14, relative to the PBS group): 24.84% | median survival ([2]; one i.v. dose on Day 0): 16 days | average tumor volume on Day 14 ([2]; one i.v. dose on Day 0, 3 mg Dox kg^−1 and/or ˜4×10^6 cells per mouse): 1328.6 mm^3 | Bands ([3]; CBC, Day 7): 12% | HCT ([3]; CBC, Day 7): 48.9% | HGB ([3]; CBC, Day 7): 44.0 g/dL | Lymphs ([3]; CBC, Day 7): 82% | MCH ([3]; CBC, Day 7): 31.6 pg | MCHC ([3]; CBC, Day 7): 62 g/dL | MCV ([3]; CBC, Day 7): 15.4 fL | Monos ([3]; CBC, Day 7): 6% | RBC ([3]; CBC, Day 7): 1.39e+07 µL⁻¹ | Segs ([3]; CBC, Day 7): 0% | WBC ([3]; CBC, Day 7): 13490 µL⁻¹ | complete blood count (CBC) analysis, overall ([3]; Day 7): abnormalities | body weight change ([3]; normal balb/c mice, Day 2, hydrochloride salt): small degree of body weight loss
